{
  "source": "paper PMC8268376",
  "about": "“Effects of Venlafaxine, Risperidone and Febuxostat on Cuprizone-Induced Demyelination, Behavioral Deficits and Oxidative Stress” (International Journal of Molecular Sciences, 2021)",
  "molecular_target": "TRPA1 (hTRPA1, transient receptor potential ankyrin 1) (Homo sapiens, UniProt O75762)",
  "sequence (O75762 whole entry)": "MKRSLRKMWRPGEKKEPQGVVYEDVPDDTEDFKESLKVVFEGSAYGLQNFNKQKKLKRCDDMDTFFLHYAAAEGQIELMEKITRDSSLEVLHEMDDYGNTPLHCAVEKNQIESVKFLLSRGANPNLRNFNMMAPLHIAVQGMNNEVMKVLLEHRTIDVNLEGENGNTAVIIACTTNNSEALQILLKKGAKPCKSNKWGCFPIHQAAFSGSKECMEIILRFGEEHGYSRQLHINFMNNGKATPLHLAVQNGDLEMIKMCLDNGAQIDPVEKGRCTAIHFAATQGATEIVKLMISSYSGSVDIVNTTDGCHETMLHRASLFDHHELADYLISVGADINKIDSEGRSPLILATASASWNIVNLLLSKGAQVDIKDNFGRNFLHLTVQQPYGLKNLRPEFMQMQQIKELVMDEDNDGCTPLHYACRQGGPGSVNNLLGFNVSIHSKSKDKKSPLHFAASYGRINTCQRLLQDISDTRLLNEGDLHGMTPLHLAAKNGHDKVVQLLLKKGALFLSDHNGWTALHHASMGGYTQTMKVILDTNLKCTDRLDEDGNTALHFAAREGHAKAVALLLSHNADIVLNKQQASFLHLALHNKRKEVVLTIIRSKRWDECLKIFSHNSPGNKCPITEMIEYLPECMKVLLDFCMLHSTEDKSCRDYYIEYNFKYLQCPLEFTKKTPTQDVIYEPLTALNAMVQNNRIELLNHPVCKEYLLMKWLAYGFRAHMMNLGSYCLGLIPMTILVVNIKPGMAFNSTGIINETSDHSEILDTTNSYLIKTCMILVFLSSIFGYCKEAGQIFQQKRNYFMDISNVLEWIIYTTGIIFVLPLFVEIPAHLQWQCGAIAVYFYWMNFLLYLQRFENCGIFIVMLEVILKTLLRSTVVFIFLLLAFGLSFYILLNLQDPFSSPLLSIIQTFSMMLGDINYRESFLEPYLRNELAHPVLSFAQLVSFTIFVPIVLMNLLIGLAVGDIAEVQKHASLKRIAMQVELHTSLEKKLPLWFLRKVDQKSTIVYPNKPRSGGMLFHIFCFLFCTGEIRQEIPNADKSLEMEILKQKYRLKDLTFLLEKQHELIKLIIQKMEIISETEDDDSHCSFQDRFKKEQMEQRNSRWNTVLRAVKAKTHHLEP",
  "assay": "Calcium […] fluorescence assay in hTRPA1-transfected vs untransfected HEK293T cells; agonist response blocked by A-967079; significant at […] and above",
  "type": "cell-based",
  "data": [
    {"compound": "Cc1nc(-c2ccc(OCC(C)C)c(C#N)c2)sc1C(=O)O", "note": "[febuxostat]", "values": [
      {"measurement": "lowest concentration giving significant TRPA1 calcium response", "value": "~ 126 µM"}
    ]}
  ]
}
